In ChEMBL document CHEMBL3867426, “Synthesis and biological evaluation of 6-fluoro-3-phenyl-7-piperazinyl quinolone derivatives as potential topoisomerase I inhibitors” (Eur J Med Chem, 2016):
Calls of active or inactive are those of the source. The calls are words filed in the database; no cut-off is given here.

Key:
[1] = tested on: Mus musculus; experiment: Toxicity in BALB/c nude mouse xenografted with human A549 cells assessed as change in body weight at 20 mg/kg, iv administered once every 3 days for 23 days measured twice per week during compound dosing; assay type: organism-based; conditions: in vivo
[2] = Antitumor activity against human A549 cells xenografted in BALB/c nude mouse assessed as reduction in tumor volume at 20 mg/kg, iv administered once every 3 days measured on day 9 post dose; assay type: functional
[3] = Antitumor activity against human A549 cells xenografted in BALB/c nude mouse assessed as reduction in tumor volume at 20 mg/kg, iv administered once every 3 days measured on day 3 post dose; assay type: functional
[4] = Antitumor activity against human A549 cells xenografted in BALB/c nude mouse assessed as reduction in tumor volume at 20 mg/kg, iv administered once every 3 days measured on day 23 post dose; assay type: functional
[5] = Antitumor activity against human A549 cells xenografted in BALB/c nude mouse assessed as reduction in tumor volume at 20 mg/kg, iv administered once every 3 days measured on day 6 post dose; assay type: functional
[6] = Antitumor activity against human A549 cells xenografted in BALB/c nude mouse assessed as tumor growth inhibition at 20 mg/kg, iv administered once every 3 days for 23 days relative to control; assay type: functional; conditions: read-out: TGI
[7] = molecular target: T1, DNA topoisomerase 1 (Homo sapiens) (UniProt P11387); experiment: Inhibition of DNA topoisomerase 1 (unknown origin)-mediated relaxation of supercoiled pBR322 plasmid DNA at 100 uM after 30 mins by agarose gel electrophoresis
T1 sequence (whole entry): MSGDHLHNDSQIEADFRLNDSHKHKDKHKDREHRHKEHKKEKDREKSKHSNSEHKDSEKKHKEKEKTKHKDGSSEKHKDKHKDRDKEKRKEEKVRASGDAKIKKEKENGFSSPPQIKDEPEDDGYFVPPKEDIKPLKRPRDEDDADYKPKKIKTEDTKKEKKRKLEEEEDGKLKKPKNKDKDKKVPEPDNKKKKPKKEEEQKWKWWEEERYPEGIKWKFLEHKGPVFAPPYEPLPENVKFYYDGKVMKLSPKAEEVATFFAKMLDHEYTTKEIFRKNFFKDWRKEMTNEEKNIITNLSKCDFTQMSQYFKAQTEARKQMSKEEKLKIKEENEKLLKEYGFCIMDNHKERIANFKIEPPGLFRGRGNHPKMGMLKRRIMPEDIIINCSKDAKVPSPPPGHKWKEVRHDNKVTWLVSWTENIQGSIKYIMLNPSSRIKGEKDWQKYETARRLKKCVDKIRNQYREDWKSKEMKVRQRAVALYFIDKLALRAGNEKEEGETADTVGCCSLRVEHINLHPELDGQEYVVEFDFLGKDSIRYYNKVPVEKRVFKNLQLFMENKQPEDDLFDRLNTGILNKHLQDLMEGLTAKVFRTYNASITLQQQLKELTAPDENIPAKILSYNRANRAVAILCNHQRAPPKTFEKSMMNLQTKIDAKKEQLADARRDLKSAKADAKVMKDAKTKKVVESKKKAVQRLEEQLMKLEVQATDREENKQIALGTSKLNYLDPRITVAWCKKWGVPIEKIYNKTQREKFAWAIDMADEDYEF

[8] = Cell cycle arrest in human A549 cells assessed as accumulation at G2 phase at 0.5 uM after 24 hrs by propidium iodide staining based flow cytometric analysis (reference value: 22.51%); assay type: functional
[9] = Antitumor activity against human A549 cells xenografted in BALB/c nude mouse assessed as reduction in tumor volume at 20 mg/kg, iv administered once every 3 days measured on day 21 post dose; assay type: functional
[10] = Antitumor activity against human A549 cells xenografted in BALB/c nude mouse assessed as reduction in tumor volume at 20 mg/kg, iv administered once every 3 days measured on day 18 post dose; assay type: functional
[11] = tested on: Mus musculus; experiment: Toxicity in BALB/c nude mouse xenografted with human A549 cells assessed as mortality at 20 mg/kg, iv administered once every 3 days for 23 days; assay type: organism-based; conditions: in vivo
[12] = Antiproliferative activity against human BGC823 cells after 48 hrs by MTT assay; assay type: functional, cell-based; conditions: BGC-823, 48 h
[13] = Solubility of the compound in Tris/glycine/SDS buffer at pH 7.9; assay type: physicochemical
[14] = Antitumor activity against human A549 cells xenografted in BALB/c nude mouse assessed as reduction in tumor volume at 20 mg/kg, iv administered once every 3 days measured on day 15 post dose; assay type: functional
[15] = cells; conditions: Homo sapiens, A549, 48 h
[16] = cells; conditions: Homo sapiens, HeLa, 48 h
[17] = Antitumor activity against human A549 cells xenografted in BALB/c nude mouse assessed as reduction in tumor volume at 20 mg/kg, iv administered once every 3 days measured on day 12 post dose; assay type: functional
[18] = Cell cycle arrest in human A549 cells assessed as accumulation at S phase at 0.5 uM after 24 hrs by propidium iodide staining based flow cytometric analysis (reference value: 26.40%); assay type: functional
[19] = Cell cycle arrest in human A549 cells assessed as accumulation at G1 phase at 0.5 uM after 24 hrs by propidium iodide staining based flow cytometric analysis (reference value: 46.14%); assay type: functional
[20] = cells; conditions: Homo sapiens, HepG2, 48 h
[21] = Solubility of the compound in pH 7.9 Tris/glycine/SDS buffer at 50 uM; assay type: physicochemical; conditions: pH 7.9, 50 µM

COc1cccc(-c2cn(C3CC3)c3cc(N4CCNCC4)c(F)cc3c2=O)c1
Activity [1]: Non-Toxic | T/C [2]: 118.67% | T/C [3]: 140.57% | T/C [4]: 64.72% | T/C [5]: 114.41% | inhibition in vivo at 20 mg/kg [6]: 42.8% | inhibition [7]: Active | Activity [8]: 11.8% | T/C [9]: 71.52% | T/C [10]: 68.69% | Activity [11]: Non-Toxic | IC50 [12]: 0.69 µM | solubility [13]: > 400 µM | T/C [14]: 73.12% | IC50 [15]: 0.12 µM | IC50 [16]: 0.92 µM | T/C [17]: 85.88% | Activity [18]: 32.2% | Activity [19]: 48.2% | IC50 [20]: 0.91 µM

CCn1cc(-c2cccc(F)c2)c(=O)c2cc(F)c(N3CCNCC3)cc21
IC50 [12]: 27.3 µM | IC50 [15]: 3.06 µM | IC50 [16]: 21.9 µM | IC50 [20]: 27.8 µM

COc1ccc(-c2cn(C3CC3)c3cc(N4CCNCC4)c(F)cc3c2=O)cc1
inhibition [7]: Active | IC50 [12]: 18.9 µM | solubility [13]: > 400 µM | IC50 [15]: 1.87 µM | IC50 [16]: 16.5 µM | IC50 [20]: 20.8 µM

CCn1cc(-c2nc3ccc([N+](=O)[O-])cc3o2)c(=O)c2cc(F)c(N3CCNC(C)C3)c(F)c21 (centres undefined)
solubility [21]: Insoluble | IC50 [12]: 2.74 µM | IC50 [15]: 1.47 µM | IC50 [16]: 2.98 µM | IC50 [20]: 2.65 µM

O=c1c(-c2cccc(F)c2)cn(C2CC2)c2cc(N3CCNCC3)c(F)cc12
inhibition [7]: Active | IC50 [12]: 12 µM | solubility [13]: > 400 µM | IC50 [15]: 1.1 µM | IC50 [16]: 9.16 µM | IC50 [20]: 7.38 µM

CCn1cc(-c2cccc(OC)c2)c(=O)c2cc(F)c(N3CCNCC3)cc21
IC50 [12]: 14.7 µM | IC50 [15]: 0.8 µM | IC50 [16]: 12.2 µM | IC50 [20]: 13 µM

COc1cccc(-c2cn(C3CC3)c3cc(N4CCN(C)CC4)c(F)cc3c2=O)c1
IC50 [12]: 20.9 µM | IC50 [15]: 1.12 µM | IC50 [16]: 14.8 µM | IC50 [20]: 25.4 µM

O=c1c(-c2ccc(F)cc2)cn(C2CC2)c2cc(N3CCNCC3)c(F)cc12
inhibition [7]: Active | IC50 [12]: 15.1 µM | solubility [13]: > 400 µM | IC50 [15]: 1.68 µM | IC50 [16]: 14.9 µM | IC50 [20]: 10.6 µM

O=c1c(-c2cccc(Cl)c2)cn(C2CC2)c2cc(N3CCNCC3)c(F)cc12
Activity [1]: Non-Toxic | T/C [2]: 85.54% | T/C [3]: 87.18% | T/C [4]: 74.32% | T/C [5]: 95.42% | inhibition in vivo at 20 mg/kg [6]: 29.2% | inhibition [7]: Active | Activity [8]: 17.7% | T/C [9]: 73.07% | T/C [10]: 62.96% | Activity [11]: Non-Toxic | IC50 [12]: 0.61 µM | solubility [13]: > 400 µM | T/C [14]: 76.4% | IC50 [15]: 0.11 µM | IC50 [16]: 0.89 µM | T/C [17]: 58.03% | Activity [18]: 31.2% | Activity [19]: 44% | IC50 [20]: 0.86 µM

CCn1cc(-c2ccc(OC)cc2)c(=O)c2cc(F)c(N3CCNCC3)cc21
IC50 [12]: 46.1 µM | IC50 [15]: 11.6 µM | IC50 [16]: 69 µM | IC50 [20]: 57.9 µM
